Legend:
Type in all cases: cell-based, E. coli
[1] = test system: host deficient of the araD gene; assay: Amount of arabinose in the growth medium for selection
Excerpt: Any growth medium suitable for culturing E. coli cells can be used. For commercial production the growth medium will naturally be optimized in terms of the yield. Examples of suitable growth media are commercially available growth media, such as M9 and LB (available from several manufacturers, such as Fermentas, Lithuania). The amount of arabinose added in the growth medium is not critical but naturally arabinose should be present in an amount that is sufficient for the total culturing period. As low amount as 0.1% has been found sufficient for the selection. Typically arabinose is added to the medium in an amount of about 0.1% to about 2.0%, preferably in an amount of about 0.2% to about 1,0%, most preferably 0.2% to about 0.5%. However the effect of L-arabinose is observed at concentrations as low as 0.01% and L-arabinose can be added up to 5% in the growth medium. In a special embodiment, where L-arabinose is used both as a selecting agent and as a limited carbon source, 0.2% of L-arabinose is a suitable amount to be added into the growth medium.

ΔaraD strains = assay: L-arabinose sensitivity in M9 and yeast extract medium (FIG. 19); conditions: 0,2% and 2% arabinose, overnight at 37° C.
Experimental: (§1) Additionally the L-arabinose sensitivity was tested in M9 and yeast extract medium with different glucose and arabinose concentrations (0.2% glucose, 0.2% arabinose, 2% arabinose). The cultures were incubated at 37° C. in a shaker incubator overnight. Then the OD600 was measured to quantitate the cell density.

[2] = test system: strains with intact araD gene; assay: as above; conditions: 0,2% and 2% arabinose, overnight at 37° C.
Experimental: as §1

[3] = test system: AG1ΔaraD, DH5alphaT1 ΔaraD and JM109ΔaraD; assay: Arabinose sensitivity at lower concentrations of L-arabinose (FIG. 18)
Experimental: (§2) The arabinose sensitivity was tested on the produced AG1ΔaraD and JM109ΔaraD strains. One colony of AG1ΔaraD and one colony of JM109ΔaraD were each inoculated into 2 ml LB. The cultures were grown for 8 hours, diluted 1:100 into M9 medium containing 0.2% glycerol, 25 μg/ml kanamycin, 0.01% thiamine (0.05% proline for JM109ΔaraD) and different concentrations of L-arabinose were added in the growth medium. The cultures were grown overnight at 37° C. in shaker incubator and OD600 was measured (Table 1).
The arabinose sensitivity was further tested on AG1ΔaraD, DH5alphaT1 ΔaraD and JM109ΔaraD as above but using lower concentrations of L-arabinose.

AG1 ΔaraD = assay: Testing of arabinose sensitivity (M9 medium with 0.5% yeast extract, OD600)
Experimental: (§3) The arabinose sensitivity was tested on the E. coli DH5alphaT1 ΔaraDΔulaFΔsgbE and AG1ΔaraDΔulaFΔsgbE strains produced and compared to those of E. coli DH5alphaT1ΔaraD and AG1ΔaraD strains. One colony of each strain was inoculated into 2 ml of M9 medium containing 0.5% yeast extract, 25 μg/ml of kanamycin, 0.2% glucose only or 0.2% or 2% L-arabinose, respectively.

[4] = test system: DH5alphaT1 ΔaraDΔulaF ΔsgbE; assay: as above
Experimental: as §3

DH5alphaT1 ΔaraD = assay: as above
Experimental: as §3

AG1ΔaraD ΔulaFΔsgbE = assay: as above
Experimental: as §3

AG1ΔaraD = assay: Testing of arabinose sensitivity (M9 medium with glycerol, overnight culture, OD600); conditions: for AG1ΔaraD OD600: overnight at 37° C.
Experimental: as §2

JM109ΔaraD = assay: as above; conditions: for JM109ΔaraD OD600: overnight at 37° C.
Experimental: as §2

## O=C[C@H](O)[C@@H](O)[C@@H](O)CO [L-arabinose]
[1]
  amount of arabinose found sufficient for the selection: 0.1%
  concentration at which the effect of L-arabinose is observed: 0.01%
ΔaraD strains
  effect on growth of the ΔaraD strains: inhibited the growth
[2]
  effect on growth of strains with intact araD gene: not inhibited
[3]
  amount of L-arabinose enough to inhibit the growth: 0.0005%
AG1 ΔaraD; 0.2% L-arabinose
  OD600 Glc + 0.2% L-arabinose: 0.82
AG1 ΔaraD; 2% L-arabinose
  OD600 Glc + 2% L-arabinose: 0.26
[4]; 0.2% L-arabinose
  OD600 Glc + 0.2% L-arabinose: 0.75
[4]; 2% L-arabinose
  OD600 Glc + 2% L-arabinose: 0.28
DH5alphaT1 ΔaraD; 0.2% L-arabinose
  OD600 Glc + 0.2% L-arabinose: 0.95
DH5alphaT1 ΔaraD; 2% L-arabinose
  OD600 Glc + 2% L-arabinose: 0.35
AG1ΔaraD ΔulaFΔsgbE; 0.2% L-arabinose
  OD600 Glc + 0.2% L-arabinose: 0.82
AG1ΔaraD ΔulaFΔsgbE; 2% L-arabinose
  OD600 Glc + 2% L-arabinose: 0.35
AG1ΔaraD; 0.1% L-arabinose
  AG1ΔaraD OD600: 0.03
AG1ΔaraD; 0.2% L-arabinose
  AG1ΔaraD OD600: 0.030
AG1ΔaraD; 0.5% L-arabinose
  AG1ΔaraD OD600: 0.030
AG1ΔaraD; 1% L-arabinose
  AG1ΔaraD OD600: 0.024
AG1ΔaraD; 2% L-arabinose
  AG1ΔaraD OD600: 0.017
AG1ΔaraD; Table 1
  amount of L-arabinose enough to inhibit the growth: 0.1%
JM109ΔaraD; 0.1% L-arabinose
  JM109ΔaraD OD600: 0.03
JM109ΔaraD; 0.2% L-arabinose
  JM109ΔaraD OD600: 0.026
JM109ΔaraD; 0.5% L-arabinose
  JM109ΔaraD OD600: 0.020
JM109ΔaraD; 1% L-arabinose
  JM109ΔaraD OD600: 0.025
JM109ΔaraD; 2% L-arabinose
  JM109ΔaraD OD600: 0.021
JM109ΔaraD; Table 1
  amount of L-arabinose enough to inhibit the growth: 0.1%
